≈ marks a conversion by molar mass, not a printed value.

Assay [1] has as its system S. aureus 510 (MRSA). Nature of the assay: Minimum inhibitory concentration by broth microdilution (Example 2). In kind it is cell-based, Staphylococcus aureus. Particulars: unit assumed; for MIC + 1 mM D-Lactic acid: antibiotic + 1 mM D-Lactic acid; for MIC + 10 mM D-Lactic acid: antibiotic + 10 mM D-Lactic acid; for MIC: antibiotic alone. How it is done: (§1) Bacterial strains were maintained as suspensions in 20% (v/v) glycerol/Brain-Heart Infusion at −80° C.
(§2) A standard inoculum was prepared from broth culture.
(§3) The broth culture was diluted in broth to a turbidity equal to a 0.5 McFarland Standard using a spectrophotometer at a wavelength of 620 nm. The 0.5 McFarland Standard was further diluted 1:100 in broth to create the standard inoculum. 50 μl of this standard inoculum was dispensed into every well in the microtitre tray, except the negative controls, where 50 μl of broth was dispensed instead.
(§4) Next, a working concentration at two times the highest target concentration for every antimicrobial was created in broth from stock solutions. 100 μl of this working concentration was pipetted into the first well, and 50 μl of broth media into all other wells. 50 μl of the first well was pipetted out and serially diluted across all wells in the row until the final concentration in the range achieved. 50 μl from the final well was removed and discarded. This produced a concentration range where each well was double the target concentration. All agents were performed in duplicate.
(§5) 96 well trays were incubated at 37° C. for 18±2 hours.
Background: Dilution methods test growth across graded concentrations, often in twofold steps.

Assay [2] has as its system S. aureus 29213 (MSSA). Described as above. It is filed as cell-based, Staphylococcus aureus. The conditions noted are these: for MIC + 1 mM D-Lactic acid: antibiotic + 1 mM D-Lactic acid; for MIC + 10 mM D-Lactic acid: antibiotic + 10 mM D-Lactic acid. As for the experimental part: as §1, §2, §3, §4, §5
The subject of assay [3] is S. pneumoniae D39. Description: Resazurin reduction for the evaluation of metabolic activity (Example 2). It is filed as cell-based, Streptococcus pneumoniae. The conditions noted are these: plus 10 mM D-Lactic acid. How it is done: as §1
(§6) Aerobic respiration was measured in the presence or absence of D-Lactic acid and the presence or absence of companion antibiotics either following incubation and visual recording of the MIC, or in a separate study. For evaluation after completion of MIC determination, the entire volume of the MIC well (100 μl) was mixed by pipetting up and down, then transferred to the equivalent well of a fluorescence-absorbance suitable 96-well plate. Alternatively, cultures were pipetted together as above and incubated overnight at 37° C. in the absence of any antimicrobial compounds. Culture supernatants were removed, adherent cells washed and then treated by the addition of 100 μL of fresh broth, 50 μL of broth containing 4×the desired concentration of antibiotic and 50 μL containing 4×the desired concentration of D-Lactic acid or vehicle only controls, followed by incubation at 37° C. for a further 18±2 hours. After incubation regimes were completed for both procedures, resazurin reduction was evaluated by adding 10 μl of a 0.02% resazurin solution to every well, and incubating the plates with gentle shaking (40 rpm) for a further 90 minutes at 37° C. 96-well plates and resazurin were protected from light as much as possible.
(§7) Following incubation, the 96-well trays were read on a fluorescence-absorbance spectrophotometer, using an excitation frequency of 565 nm and emission frequency of 590 nm. The value for each well was blanked by subtracting the value of the negative control. Every value was then converted to a ratio with respect to the mean value of the positive controls.

The test system of assay [4] is S. aureus 510 (MRSA). The description is as above. It is filed as cell-based, Staphylococcus aureus. As for the experimental part: as §1, §6, §7
In assay [5] the test system is S. aureus 29213 (MSSA). The assay is described as above. It is filed as cell-based, Staphylococcus aureus. Particulars: plus 10 mM D-Lactic acid. How it is done: as §1, §6, §7
The test system of the next assay is P. aeruginosa WACC91. Description: Minimum inhibitory concentration by broth microdilution (Example 2). In kind it is cell-based, Pseudomonas aeruginosa. How it is done:
(§8) Bacterial strains were maintained as suspensions in 20% (v/v) glycerol/Brain-Heart Infusion at −80° C. For use, a loop-full of ice was scraped from the stock and streaked for single colonies on rich media containing 1.8% agar (for Pseudomonas aeruginosa or Klebsiella pneumoniae, Luria-Bertani medium; for Staphylococcus aureus or Streptococcus pneumoniae, Trypticase Soy agar) and incubated overnight at 37° C.
(§9) A standard inoculum was prepared from broth culture. 1 to 3 colonies from an overnight agar culture plate were transferred to 5 ml of broth media and incubated at 37° C. with shaking (200 rpm) until turbidity was greater than that of a 0.5 McFarland Standard (overnight). The following broth media were used: Cation-adjusted Mueller-Hinton broth (caMHB—all strains); Roswell Park Memorial Institute medium (RPMI 1640, phenol red-free—S. aureus); Trypticase Soya Broth (TSB—S. aureus, S. pneumoniae); Todd Hewitt Broth (THB—S. pneumoniae), M63 minimal medium, supplemented with 0.2% glucose (M63—K. pneumoniae).
as §3, §4, §5

Assay [6] has as its system S. pneumoniae D39. Described as above. It is filed as cell-based, Streptococcus pneumoniae. Particulars: for MIC + 1 mM D-Lactic acid: antibiotic + 1 mM D-Lactic acid; for MIC + 10 mM D-Lactic acid: antibiotic + 10 mM D-Lactic acid; for MIC: antibiotic alone. How it is done: as §8, §9, §3, §4, §5
Assay [7] concerns P. aeruginosa strain WACC91. Description: Resazurin reduction of planktonic cultures in M63 (glucose), D- versus L-Lactic acid (Example 3). It is filed as cell-based, Pseudomonas aeruginosa. As for the experimental part:
. Viable cells reduce the blue resazurin dye to the pink, fluorescent resorufin form. Following incubation fluorescence was quantified by excitation wavelength of 540 nm and an emission wavelength of 590 nm using Enspire microplate reader.
P. aeruginosa strain WACC91 was maintained as a suspension in 20% (v/v) glycerol/Brain-Heart Infusion at −80° C. For use, a loop-full of ice was scraped from the stock and streaked for single colonies on LB media containing 1.8% agar and incubated overnight at 37° C. Isolated colonies were looped into 5 mL of LB broth and incubated at 37° C. with shaking until turbidity was greater than that of a 1.0 McFarland Standard (3-4 h).
The broth culture was diluted in M63 minimal media containing 0.2% (w/v) glucose as the sole carbon source to a turbidity equal to a 1.0 McFarland standard using a spectrophotometer at a wavelength of 595 nm. This culture was then diluted 1:100 in M63 (glucose) and 100 μL together with an additional 50 μL was transferred to each well of a 96 well microtitre tray and incubated overnight at 37° C., 5% CO2. D-Lactic acid, L-Lactic acid, or vehicle only (sterile H2O) was then applied by adding 50 μL of appropriate stock solutions diluted in M63 (glucose) and incubating for a further 24 hours at 37° C., 5% CO2. Culture metabolic activity was then determined using resazurin reduction as described above in Example 1.
For orientation: Resazurin is reduced to fluorescent resorufin, in cell work by metabolically active cells.

Turning to `CO/N=C(\C(=O)N[C@@H]1C(=O)N2C(C(=O)O)=C(CSc3nc(=O)c(=O)[nH]n3C)CS[C@H]12)c1csc(N)n1` [ceftriaxone], the MIC + 1 mM D-Lactic acid in the assay on S. aureus 510 (MRSA) [1] was 8 µg/mL; in the assay with S. aureus 29213 (MSSA) [2], 4.0. Besides, the MIC + 10 mM D-Lactic acid in the assay on S. aureus 510 (MRSA) [1] amounted to 8 µg/mL; in the assay with S. aureus 29213 (MSSA) [2], 4.0. The compound further returned an MIC in the assay with S. aureus 510 (MRSA) [1] of 16 µg/mL (≈ 28.9 µM). In addition, the “Relative metabolic activity, antibiotic plus D-Lactic acid versus antibiotic only” value (from here on “Relative metabolic activity”) in the assay with S. pneumoniae D39 [3], with S. aureus 510 (MRSA) [4] (plus 0.1 mM D-Lactic acid) and with S. aureus 29213 (MSSA) [5] was “enhances metabolic activity suppression” throughout.

As for `CN(C)[C@@H]1C(O)=C(C(N)=O)C(=O)[C@@]2(O)C(O)=C3C(=O)c4c(O)cccc4[C@@](C)(O)[C@H]3C[C@@H]12` [tetracycline], in the assay with S. aureus 510 (MRSA) [1], the MIC + 1 mM D-Lactic acid was under 0.5 µg/mL, the MIC + 10 mM D-Lactic acid is under 0.5 µg/mL and the MIC was determined as 1 µg/mL (≈ 2.25 µM).

For `C[C@@H](O)[C@H]1C(=O)N2C(C(=O)O)=C(S[C@@H]3CN[C@H](C(=O)N(C)C)C3)[C@H](C)[C@H]12` [meropenem], the MIC + 1 mM D-Lactic acid in the assay on S. aureus 510 (MRSA) [1] is 2 µg/mL; in the assay with S. aureus 29213 (MSSA) [2] it was 0.5; in the assay with P. aeruginosa WACC91 (antibiotic + 1 mM D-Lactic acid), under 0.5; in the assay with S. pneumoniae D39 [6] it was 0.25. In addition, the MIC + 10 mM D-Lactic acid is 2 µg/mL in the assay on S. aureus 510 (MRSA) [1], 0.5 in the assay with S. aureus 29213 (MSSA) [2], under 0.5 in the assay with P. aeruginosa WACC91 (antibiotic + 10 mM D-Lactic acid) and 0.5 in the assay with S. pneumoniae D39 [6]. In addition, the MIC in the assay on S. aureus 510 (MRSA) [1] is over 4 µg/mL; against P. aeruginosa WACC91 (antibiotic alone), 1.0; against S. pneumoniae D39 [6], 0.5. The “Relative metabolic activity” value with S. aureus 510 (MRSA) [4] (plus 10 mM D-Lactic acid) and in the assay with S. aureus 29213 (MSSA) [5] was “enhances metabolic activity suppression” in each case.

As to `C[C@H](O)C(=O)O` [L-Lactic acid], in assay [7] (Resazurin reduction in comparison to vehicle-only treatment), the “breakpoint of metabolic rate (concentration range in which the change of activity is clearest)” value is listed as “No comparable breakpoint is observed”. Also, the “change in metabolic activity” value in assay [7] (resorufin fluorescence, same concentrations as D-Lactic acid) is on record as “No change in metabolic activity”.

Consider `CN[C@H](CC(C)C)C(=O)N[C@H]1C(=O)N[C@@H](CC(N)=O)C(=O)N[C@H]2C(=O)N[C@H]3C(=O)N[C@H](C(=O)N[C@H](C(=O)O)c4cc(O)cc(O)c4-c4cc3ccc4O)[C@H](O)c3ccc(c(Cl)c3)Oc3cc2cc(c3O[C@@H]2O[C@H](CO)[C@@H](O)[C@H](O)[C@H]2O[C@H]2C[C@](C)(N)[C@H](O)[C@H](C)O2)Oc2ccc(cc2Cl)[C@H]1O` [vancomycin], for which the values for the MIC + 1 mM D-Lactic acid in the assay with S. aureus 510 (MRSA) [1] and in the assay with S. aureus 29213 (MSSA) [2] were 2 µg/mL and 4.0, respectively. The MIC + 10 mM D-Lactic acid with S. aureus 510 (MRSA) [1] is 2 µg/mL; with S. aureus 29213 (MSSA) [2], 2.0. In the assay with S. aureus 510 (MRSA) [1], the MIC stood at 8 µg/mL (≈ 5.52 µM). In addition, the “Relative metabolic activity” value in the assay with S. pneumoniae D39 [3], in the assay on S. aureus 510 (MRSA) [4] (plus 1.0 mM D-Lactic acid) and in the assay with S. aureus 29213 (MSSA) [5] was “enhances metabolic activity suppression” in each case.

With `CC1(C)S[C@@H]2[C@H](NC(=O)[C@H](N)c3ccc(O)cc3)C(=O)N2[C@H]1C(=O)O` [amoxicillin], in the assay on S. aureus 29213 (MSSA) [2], the “MIC + 1 mM D-Lactic acid” value is reported as under 1.0 and the “MIC + 10 mM D-Lactic acid” value was 2.0. Moreover, in the assay with S. pneumoniae D39 [3], the “Relative metabolic activity” value is “enhances metabolic activity suppression”. Moreover, in the assay with S. pneumoniae D39 [6], the “MIC + 1 mM D-Lactic acid” value amounted to 0.25, the “MIC + 10 mM D-Lactic acid” value came out at 0.25 and the MIC was determined as 0.5.

In the case of `COc1cccc(OC)c1C(=O)N[C@@H]1C(=O)N2[C@@H]1SC(C)(C)[C@@H]2C(=O)O` [methicillin], in the assay with S. aureus 510 (MRSA) [1], the MIC + 1 mM D-Lactic acid worked out at 2 µg/mL, the MIC + 10 mM D-Lactic acid is 2 µg/mL and the MIC is over 16 µg/mL. For the same compound, in the assay with S. aureus 29213 (MSSA) [2], the “MIC + 1 mM D-Lactic acid” value was determined as 0.5 and the “MIC + 10 mM D-Lactic acid” value is recorded as 0.5. In addition, in the assay with S. aureus 510 (MRSA) [4] (plus 10 mM D-Lactic acid), the “Relative metabolic activity” value is “enhances metabolic activity suppression”. Also, the “Relative metabolic activity” value in the assay on S. aureus 29213 (MSSA) [5] is “enhances metabolic activity suppression”.

The record behind these values is patent publication US20260271925A1, “DYSREGULATION OF PLANKTONIC BACTERIAL METABOLISM” (Lixa Limited, priority 2023, published 2026).
